Entries after “also recorded” stand apart in the source; their conditions may differ.
Legend:
[1] = system: PINK1 mutant flies; test: Flight assay of PINK1 mutant flies fed with FAS inhibitor; assay type: in vivo, Drosophila melanogaster
Protocol: FASN is a 273 kDa protein that produces palmitate, which is a precursor of fatty acids in a seven-step enzymatic reaction. FASN uses malonyl CoA and acetyl CoA as substrates. Several inhibitors of FASN function exist. Tests were performed to determine whether defective flight in PINK1 mutants could be pharmacologically rescued.
One-day-old adult flies were placed on molasses medium supplemented with 100 μM Cerulenin (Enzo Life Sciences) or 3 μM Irgasan (Sigma) (2.5% final ethanol concentration) or supplemented with 2.5% ethanol for control medium. […] To determine mitochondrial morphology, embryos were placed on molasses medium supplemented with 100 μM Cerulenin (2.5% final ethanol concentration) or supplemented with 2.5% ethanol for control medium and grown to the third instar larval stage. These third instar larvae were dissected and used for experiments (see below).
The flight assay was conducted on male flies using batches of five flies each. The flies were placed in an empty vial and gently tapped.

[2] = system: PINK1−/− MEFs; test: ATP levels of PINK1−/− MEFs treated with FASN inhibitor; assay type: cell-based, mice; conditions: 10 μM Cerulenin vs untreated cells
Protocol: To directly test if further lowering FASN activity in PINK mutant cells rescues the mitochondrial dysfunction in these cells, ATP levels were tested.
(§1) Cells were treated with 10 μM Cerulenin (0.1% ethanol) or control medium supplemented with 0.1% ethanol.
(§2) ATP levels were determined as previously described (Morais et al. (2014) Science 344:203-207) using an ATP determination kit (Invitrogen) according to supplier's protocol. Luminescence was measured on a luminometer (Biorad) and values were normalized to total protein content (Bradford method).

[3] = system: fibroblasts from patients carrying mutations in PINK1 (L1703); test: ATP levels of fibroblasts from patients carrying PINK1 mutations; assay type: cell-based, human; conditions: patient fibroblasts with PINK1 mutations (L1703), 10 μM Cerulenin vs untreated cells
Protocol: To directly test if further lowering FASN activity in PINK mutant cells rescues the mitochondrial dysfunction in these cells, ATP levels were tested. […] Thus, the inhibition of FASN with an inhibitor rescues in flies and cells isolated from mice and patients the PINK1-induced mitochondrial defects.
as §1, §2

[4] = system: control cells (PINK1+/+ MEF and L2134 controls); test: ATP levels of control cells treated with FASN inhibitor; assay type: cell-based
Protocol: as §2, with “Cells were treated with 10 μM Cerulenin (0.1% ethanol) or control medium supplemented with 0.1% ethanol. ATP levels” for “ATP levels”

[5] = system: PINK−/− MEFs; test: Shotgun lipidomics of mitochondrial fractions (cardiolipin levels); assay type: cell-based, mice; conditions: compared to control MEFs
Source text: Nonetheless, when FASN activity was lowered further in PINK1^−/− mutants, either by genetic or by pharmacological inhibition, the palmitate levels drop further. […] Only unsaturated phosphatidylglycerol (PG) is a good substrate for CL synthase (Bobyleva et al. (1997) Biochem. Mol. Biol. Int. 41:469-480) and high levels of palmitate shift the balance toward more saturated PG (Ostrander et al. (2001) J. Biol. Chem. 276:38061-38067). Opposite to this, it was confirmed that inhibition of FASN results in more unsaturated PG, while wondering if FASN inhibition results in increased CL levels.
as §1
Mitochondria were isolated and resuspended in ammonium bicarbonate buffer. Lipids were extracted and analyzed using shotgun mass spectrometry (lipotype). In short, using Chloroform and Methanol, lipids were extracted via a two-step lipid extraction process. These extracted lipids were then immediately subjected to mass spectrometric analysis. Lipid data were acquired on a hybrid quadrupole/ORBITRAP® mass spectrometer (Q-Exactive, Thermo-Fisher) equipped with an automated nanoflow electrospray ion source (TRIVERSA NANOMATE® Advion) in both positive and negative ion mode. LIPOTYPE® XPLORER® was used to identify lipids on unprocessed mass spectra.

Compound: C/C=C/C/C=C/CCC(=O)[C@H]1O[C@H]1C(N)=O [cerulenin]
- flight ability ([1]; PINK1 mutant flies on food with different concentrations of cerulenin, flight assay every 24 hours): increased flight ability; also recorded: a dose-response effect was observed
- ATP levels [2]: elevated ATP levels compared to untreated cells; also recorded: increased levels of ATP
- ATP levels [3]: elevated ATP levels compared to untreated cells; also recorded: increased levels of ATP
- ATP levels [4]: did not have an effect
- cardiolipin (CL) levels [5]: almost completely restored the levels of all the CL species that were assessed back to control levels

Compound: Oc1cc(Cl)ccc1Oc1ccc(Cl)cc1Cl [irgasan]
- flight ability ([1]; PINK1 mutant flies (B9), concentrations between 1-10 μM irgasan in food): clearly enhance the flight ability
